Patent US6395740B1, “Calcitonin mimetics” (ZymoGenetics, Inc., priority 1997, dated 2002)

Test system: PTH-induced bone resorption in mouse calvaria
Test: Calvarial assay to determine calcitonin escape
Assay type: cell-based
Method: Calvaria from 4-day old neonatal CD-1 mice (pregnant mice received from Charles River Laboratories) were trimmed with fine-tipped scissors to leave the parietal regions, including the sagittal suture. These trimmed bones were placed singly per well into 6-well culture cluster plates (Costar) with 1 mL/well of growth medium, Basel Medium (Eagle's with Earle's salts (GIBCO BRL, Gaithersburg, Md.)) containing 4.5 g/L glucose, 0.29 mg/mL L-glutamine, 1 mM sodium pyruvate, 15% heat-inactivated horse serum, antibiotics (penicillin-G 50 μg/mL, streptomycin 50 μg/mL, and neomycin 100 μg/mL) and containing 5 nM parathyroid hormone (PTH) 1-34 (Sigma), and rocked gently (RedRocker™) at 37° C. in a 5% CO2 humidified incubator for 17.5 hours preincubation. The concentration of PTH was chosen to insure maximum resorption. Calvaria designated as controls were pre-incubated in media without PTH.
Following preincubation, medium was removed and replaced with 1 mL/well of growth medium, as above, containing 20 or 30 μg/mL of the calcitonin mimetic 850-0231 in DMSO (final assay concentration of DMSO less than or equal to 1%), and compared with human calcitonin (hCT) tested at 0.5, 1.0, 5.0, […] All control wells contained a final assay concentration of DMSO equal to that present in the calcitonin mimetic treated wells.
Five bones were included in each sample group. Bones were incubated for a total of 98 hours. Time points were taken at 4, 8, 11, 24, 50.5, 72.5 and 98 hours. At each time point the media containing PTH was removed and fresh dilutions of compound in media were added to the calvaria. After the media was removed, total calcium measurements were made using a Nova 7/7+7 Electrolyte Analyzed (Nova Biomedical) according to the manufacturer's specifications. Induction of bone resorption by PTH is seen as an increase in the concentration of calcium in the growth medium due to degradation of the bone matrix.
A second calvaria bone resorption/escape assay was performed as described above with time points at 4, 8, 12, 16, 24, 49 and 73 hours. […] Histology was done on the PTH-treated and the 30 μg/mL calcitonin mimetic-treated calvaria.
A third calvaria bone resorption/escape assay was performed as described above with the following modifications. The calcitonin mimetic was tested at 5, 10 and 20 μg/mL. PTH was used at 10 nM to insure maximal resorption, hCT was tested at 2 nM and 8 nM and sCT was not included. Calvaria were pretreated with PTH for 19.75 hours. BrdU (bromodeoxyuridine, final concentration 10 μM) was added to the growth media for the final 17.5 hours, to identify proliferating cells. The lack of toxicity of 850-0231 will be verified by quartitating the number of proliferating BudU cells in histological sections of the calvaria. Time points were taken at 4, 8, 11, 24.5, 48 and 77 hours. A Novo CRT 10+ electrolyte analyzer (Nova Biomedical) was used to analyze the time point samples.
At the final time point, visual observations were made and photos taken to note the extent of resorption, and migration from the calvarial cells as a measure of toxicity. Again, human calcitonin lost its inhibitory effect between hours 11 and 24 (Table 5). The calvaria treated with the mimetic at 5 and 10 μg/mL also lost inhibitory effect between 11 and 24 hours.

## COc1cc(CN2CCN(C(=O)Nc3cccc(C(F)(F)F)c3)CC2)ccc1O [Compound 850-0231]
First assay, PTH 5 nM, 30 μg/mL
  escape / continued inhibition of resorption: did not undergo this escape and continued to inhibit resorption throughout the 98th, hour
First assay, PTH 5 nM, 850-0231 30 μg/mL, 4 hours
  Cumulative Total Calcium: 0.16 mg %
First assay, PTH 5 nM, 850-0231 30 μg/mL, 8 hours
  Cumulative Total Calcium: 0.28 mg %
First assay, PTH 5 nM, 850-0231 30 μg/mL, 11 hours
  Cumulative Total Calcium: 0.36 mg %
First assay, PTH 5 nM, 850-0231 30 μg/mL, 24 hours
  Cumulative Total Calcium: 0.48 mg %
First assay, PTH 5 nM, 850-0231 30 μg/mL, 50.5 hours
  Cumulative Total Calcium: 0.32 mg %
First assay, PTH 5 nM, 850-0231 30 μg/mL, 72.5 hours
  Cumulative Total Calcium: 0.12 mg %
First assay, PTH 5 nM, 850-0231 30 μg/mL, 98 hours
  Cumulative Total Calcium: −0.18 mg %
First assay, final time point
  toxicity judged by number of cells migrated from calvaria: not toxic to the cells
First assay, final time point (98 hours)
  visual observation of the calvaria (resorption): almost identical in appearance to the untreated calavaria
Second assay, 30 μg/mL
  histology of treated calvaria (integrity, toxicity): intact and showed minimal signs of toxicity
Second assay, PTH 5 nM
  continued inhibition of resorption: able to continue inhibition of resorption throughout the 73rd hour
Second assay, PTH 5 nM, 850-0231 30 μg/mL, 4 hours
  Cumulative Total Calcium: 0.40 mg %
Second assay, PTH 5 nM, 850-0231 30 μg/mL, 8 hours
  Cumulative Total Calcium: 0.70 mg %
Second assay, PTH 5 nM, 850-0231 30 μg/mL, 12 hours
  Cumulative Total Calcium: 0.88 mg %
Second assay, PTH 5 nM, 850-0231 30 μg/mL, 16 hours
  Cumulative Total Calcium: 1.14 mg %
Second assay, PTH 5 nM, 850-0231 30 μg/mL, 24 hours
  Cumulative Total Calcium: 1.04 mg %
Second assay, PTH 5 nM, 850-0231 30 μg/mL, 49 hours
  Cumulative Total Calcium: 0.86 mg %
Second assay, PTH 5 nM, 850-0231 30 μg/mL, 73 hours
  Cumulative Total Calcium: 0.56 mg %
Third assay, PTH 10 nM, 20 μg/mL
  inhibition of resorption: significantly inhibited at all time points
Third assay, PTH 10 nM, 850-0231 5 μg/mL, 4 hours
  Cumulative Total Calcium: 0.47 mg %
Third assay, PTH 10 nM, 850-0231 5 μg/mL, 8 hours
  Cumulative Total Calcium: 1.08 mg %
Third assay, PTH 10 nM, 850-0231 5 μg/mL, 11 hours
  Cumulative Total Calcium: 1.49 mg %
Third assay, PTH 10 nM, 850-0231 5 μg/mL, 24.5 hours
  Cumulative Total Calcium: 3.73 mg %
Third assay, PTH 10 nM, 850-0231 5 μg/mL, 48 hours
  Cumulative Total Calcium: 7.54 mg %
Third assay, PTH 10 nM, 850-0231 5 μg/mL, 77 hours
  Cumulative Total Calcium: 11.83 mg %
Third assay, PTH 10 nM, 850-0231 10 μg/mL, 4 hours
  Cumulative Total Calcium: 0.41 mg %
Third assay, PTH 10 nM, 850-0231 10 μg/mL, 8 hours
  Cumulative Total Calcium: 0.87 mg %
Third assay, PTH 10 nM, 850-0231 10 μg/mL, 11 hours
  Cumulative Total Calcium: 1.30 mg %
Third assay, PTH 10 nM, 850-0231 10 μg/mL, 24.5 hours
  Cumulative Total Calcium: 3.05 mg %
Third assay, PTH 10 nM, 850-0231 10 μg/mL, 48 hours
  Cumulative Total Calcium: 5.96 mg %
Third assay, PTH 10 nM, 850-0231 10 μg/mL, 77 hours
  Cumulative Total Calcium: 8.87 mg %
Third assay, PTH 10 nM, 850-0231 20 μg/mL, 4 hours
  Cumulative Total Calcium: 0.35 mg %
Third assay, PTH 10 nM, 850-0231 20 μg/mL, 8 hours
  Cumulative Total Calcium: 0.70 mg %
Third assay, PTH 10 nM, 850-0231 20 μg/mL, 11 hours
  Cumulative Total Calcium: 0.94 mg %
Third assay, PTH 10 nM, 850-0231 20 μg/mL, 24.5 hours
  Cumulative Total Calcium: 2.23 mg %
Third assay, PTH 10 nM, 850-0231 20 μg/mL, 48 hours
  Cumulative Total Calcium: 3.20 mg %
Third assay, PTH 10 nM, 850-0231 20 μg/mL, 77 hours
  Cumulative Total Calcium: 3.78 mg %
